Assay results published in paper PMC10303846, “In vitro antiplasmodial activity and toxicological profile of extracts, fractions and chemical constituents of leaves and stem bark from Dacryodes edulis (Burseraceae)” (BMC Complementary Medicine and Therapies, 2023).
Converted amounts (≈) assume the structure as drawn. Where two headings read alike, the source gives them in different places.

Assays:
[1] = Resazurin-based in vitro cytotoxicity assay; assay type: cell-based; details: mouse
Procedure: The cytotoxicity profile of extracts, fractions and isolated compounds was assessed using the resazurin-based assay essentially as previously described against RAW 264.7 cells duly cultivated in complete Dulbecco′s Modified Eagle′s Medium (DMEM) that contain 13.5 g/L of DMEM (Sigma Aldrich), 10% fetal bovine serum (Sigma Aldrich), 0.2% sodium bicarbonate (w/v) (Sigma Aldrich) and 50 μg/mL of gentamicin (Sigma Aldrich). Globally, macrophages (Raw cells) were seeded into 96-well cell-culture flat-bottomed plates at a density of 10^4 cells in 100 μL of complete medium/well and placed in incubation for 24 h at 37℃, and 5% CO2 allowing cell adhesion. Following cell adhesion, ten microliters of each serially diluted test sample solution was added to assay plates and left in incubation for 48 h under the same experimental conditions. Growth control (1% DMSO-100% growth) and positive control wells (podophyllotoxin at 20 μM) were included in the experimental plates. Cell proliferation was checked by adding 10 μL of a stock solution of resazurin (0.15 mg/mL in sterile PBS) to each well followed by an additional incubation of 4 h in the same culture conditions. Fluorescence was then read using Tecan Infinite M200 fluorescence multiwell plate reader (Tecan) at an excitation/emission of 530/590 nm. The results were expressed as 50% cytotoxic concentrations (CC50) and selectivity indices (CC50 Mammalian cell/IC50 Pf3D7) were calculated for each test substance.

[2] = system: chloroquine-resistant (multidrug-resistant) PfDd2 (MRA-150) P. falciparum strain; assay: SYBR green I-based fluorescence P. falciparum growth inhibition assay, PfDd2; assay type: cell-based, Plasmodium falciparum; details: for IC50: Plasmodium falciparum, read-out: IC50 ± SD PfDd2; for antiplasmodial activity class on PfDd2: class by IC50 criteria of b51, Dd2 strain only
Procedure: (§1) The chloroquine-sensitive Pf3D7-(MRA-102) and chloroquine-resistant PfDd2-(MRA-150) P. falciparum strains were maintained as previously described in fresh O^+ human red blood cells at 4% haematocrit in complete RPMI 1640 medium [500 mL RPMI 1640 (Gibco, UK) supplemented with 25 mM HEPES (Gibco, UK), […] (Gibco, USA), 1X hypoxanthine (Gibco, USA) and […] gentamicin (Gibco, China)] and incubating at 37 °C in a humidified atmosphere with 5% CO2. The medium was renewed daily to propagate the culture. Giemsa-stained thin blood smears were examined microscopically under immersion oil to monitor cell-cycle transition and parasitemia evolution. O^+ human red blood cells were obtained from a consent volunteer donor (Supplementary material).
(§2) Before each experiment, synchronized ring-stage parasite were obtained by 5% sorbitol (w/v) treatment with respect to Lambros and Vanderberg, 1979 [12]. It is crucial to note that, using cultures over mixed stage cultures can enable the test molecules to interact with all three stages (ring, trophozoite, and schizont) of the 48 h long life cycle of P. falciparum in culture.
(§3) A drug sensitivity assay was carried out in 96-well microtitration plates using a SYBR green I-based fluorescence assay. This assay is specifically based on the ability of SYBR green to give strong fluorescence only in the presence of parasite DNA during cell proliferation.
(§4) Shortly, sorbitol-synchronized ring stage parasites (hematocrit: 1%, parasitemia: 2%, 90 μl) under normal culture conditions were incubated in the presence of prediluted extracts, fractions, isolated compounds and reference drug (10 μL) followed by incubation at 37℃ for 72 h. After incubation, 100 μL of SYBR Green I buffer [6 μL of 10,000 × SYBR Green I (Invitrogen) + 600 μL of Red Blood Cells lysis buffer {Tris (25 mM; pH 7.5)} + 360 μL of EDTA (7.5 mM) + 19,2 μL of parasites lysis solution {saponin (0.012%; wt/vol)} and 28,8 μL of Triton X-100 (0.08%; vol/vol)}] was added to each well, mixed twice gently with a multichannel pipette and incubated in the dark at 37℃ for 1 h. Fluorescence was measured using a TECAN M 200 Microplate reader with excitation and emission at 485 and 538 nm, respectively. The fluorescence counts were plotted against the logarithm of the sample concentration and the 50% inhibitory concentration (IC50) was determined by analysis of dose–response curves using GraphPad Prism 5.0. Experiments were performed in duplicate.

[3] = system: chloroquine-sensitive Pf3D7 (MRA-102) P. falciparum strain; assay: SYBR green I-based fluorescence P. falciparum growth inhibition assay, Pf3D7; assay type: cell-based; details: Plasmodium falciparum, read-out: IC50 ± SD Pf3D7
Procedure: as §1, §2, §3, §4

[4] = system: P. falciparum 3D7 and Dd2 strains; assay: SYBR green antiplasmodial assay, results stated for both strains together; assay type: cell-based, Plasmodium falciparum; details: for Resistance Index (RI): PfDd2 versus Pf3D7; for antiplasmodial activity class on both Pf3D7 and PfDd2: class by IC50 criteria of b51
From the text: The medium was renewed daily to propagate the culture. Giemsa-stained thin blood smears were examined microscopically under immersion oil to monitor cell-cycle transition and parasitemia evolution. O^+ human red blood cells were obtained from a consent volunteer donor (Supplementary material).
as §2, §3, §4

[5] = system: chloroquine-resistant (Dd2) strain of P. falciparum; details: Zofou and colleagues (2013) ref 9; cited from earlier work
[6] = SYBr Green based assay, 72 h, multidrug-resistant strain
[7] = SYBr Green based assay, 72 h, chloroquine-sensitive strain
[8] = Raw cells, 48 h, resazurin, read-out: CC50
[9] = reference drugs, unit nM printed with the name

C/C(=C/CCC(C)C1CCC2(C)C3=CCC4C(C)(C)C(=O)CCC4(C)C3CCC12C)C(=O)O (centres unmarked) [compound 13, 3-oxo-lanosta-7,24-Z-dien-26-oid acid]
CC50 at 48 h ([1]; RAW 264.7 macrophage cells, Raw cells, 48 h, resazurin, read-out: CC50): > 100 µg/mL | IC50 [2, 6]: 14.21 ± 0.11 µg/mL | antiplasmodial activity class on PfDd2 [2]: moderate (10 < IC50 ≤ 20 μg/mL: moderate activity) | IC50 [3, 7]: > 25 µg/mL

CC1(C)CC[C@]2(C)CC[C@]3(C)C(=CC[C@@H]4[C@@]5(C)CC[C@H](O)C(C)(C)[C@@H]5CC[C@]43C)[C@@H]2C1 [compound 12, β-amyrin]
IC50 [2, 6]: > 25 µg/mL | IC50 [3, 7]: > 25 µg/mL

CCCCCCCCCCCCCCCCCCCCCCCC(=O)OCC(O)CO (centres unmarked) [compound 8, Glyceryl-1-tetracosanoate]
CC50 at 48 h [1]: > 100 µg/mL | IC50 [2, 6]: > 25 µg/mL | IC50 [3, 7]: > 25 µg/mL

CCOC(=O)c1cc(O)c(O)c(O)c1 [compound 10, Ethyl gallate]
CC50 at 48 h [1]: > 100 µg/mL | Resistance Index (RI) [4]: 2.48 | antiplasmodial activity class on both Pf3D7 and PfDd2 [4]: pronounced (IC50 ≤ 5 μg/mL: pronounced activity) | IC50 [2, 6]: 2.86 ± 0.07 µg/mL | IC50 [3, 7]: 1.15 ± 0.1 µg/mL

CCCCCC(=O)Cc1cc(OC)cc(O)c1C(=O)Oc1cc(CCCCC)c(C(=O)O)c(OC)c1 [compound 7, Confluentic acid]
CC50 at 48 h [1]: > 100 µg/mL | IC50 [2, 6]: > 25 µg/mL | IC50 [3, 7]: > 25 µg/mL

CCN(CC)CCCC(C)Nc1ccnc2cc(Cl)ccc12 (centres unmarked) [Chloroquine, reference compound]
IC50 [2]: 133 ± 0.16 nM | IC50 [3]: 4.36 ± 0.53 nM

O=C(O)c1ccc(O)c(O)c1 [compound 6, 3,4-dihydroxybenzoic acid]
CC50 at 48 h [1, 8]: > 100 µg/mL | IC50 ([2]; 72 h): 17.09 ± 0.06 µg/mL | antiplasmodial activity class on PfDd2 [2]: moderate (10 < IC50 ≤ 20 μg/mL: moderate activity) | IC50 ([3]; 72 h): > 25 µg/mL

C[C@@H]1CC[C@H]2[C@@H](C)C(=O)O[C@@H]3O[C@@]4(C)CC[C@@H]1[C@]32OO4 [Artemisinin, reference compound]
IC50 [2, 9]: 18.9 ± 0.13 nM | IC50 [3, 9]: 14.66 ± 0.11 nM

CC(=O)OCC(Cc1ccccc1)NC(=O)C(Cc1ccccc1)NC(=O)c1ccccc1 (centres unmarked) [compound 9, Auranthiamide acetate]
CC50 at 48 h [1]: > 100 µg/mL | IC50 [2, 6]: > 25 µg/mL | IC50 [3, 7]: > 25 µg/mL

COC(=O)c1cc(O)c(O)c(O)c1 [DES4, methyl 3,4,5-trihydroxybenzoate]
IC50 Dd2 [5]: 0.56 µg/mL (≈ 3.04 µM)

CC(=O)O[C@H]1CC[C@]2(C)[C@H]3CC=C4[C@@H]5CC(C)(C)CC[C@]5(C)CC[C@@]4(C)[C@]3(C)CC[C@H]2C1(C)C [compound 11, β-amyrin acetate]
CC50 at 48 h [1]: > 100 µg/mL | IC50 [2, 6]: > 25 µg/mL | IC50 [3, 7]: > 25 µg/mL

COc1cc(O)c2c(=O)c3c(C)cc(O)cc3oc2c1 [compound 2, Griseoxanthone C]
CC50 at 48 h [1, 8]: > 100 µg/mL | IC50 ([2]; 72 h): > 25 µg/mL | IC50 ([3]; 72 h): > 25 µg/mL

COc1cc2c(=O)oc3c(OC)c(O)cc4c(=O)oc(c1OC)c2c34 [compound 4, 3,3′,4-tri-O-methylellagic acid]
CC50 at 48 h [1]: > 100 µg/mL | IC50 [2, 6]: 0.63 ± 0.27 µg/mL | IC50 [3, 7]: > 25 µg/mL

COc1c(O)cc2c(=O)oc3c(OC)c(OC4OCC(O)C(OC(=O)c5cc(O)c(O)c(O)c5)C4O)cc4c(=O)oc1c2c34 [compound 5, 3,3″-di-O-methylellagic acid 4-O-(3″-galloyl)-β-D-xylopyranoside]
CC50 at 48 h [1]: > 100 µg/mL | Resistance Index (RI) [4]: 1.12 | IC50 [2, 6]: 1.76 ± 0.14 µg/mL | IC50 [3, 7]: 1.86 ± 0.18 µg/mL

COc1c(O)cc2c(=O)oc3c(OC)c(O)cc4c(=O)oc1c2c34 [compound 3, 3,3′-O-dimethylellagic acid]
CC50 at 48 h [1]: > 100 µg/mL | Resistance Index (RI) [4]: 1.16 | antiplasmodial activity class on both Pf3D7 and PfDd2 [4]: pronounced (IC50 ≤ 5 μg/mL: pronounced activity) | IC50 [2, 6]: 1.36 ± 0.14 µg/mL | IC50 [3, 7]: 1.17 ± 0.04 µg/mL
